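Grown in 96-well plates, cells were treated for 48 hours with each compound at five concentrations. Insufficient inhibition: endpoint recorded as highest concentration tested. The concentration for full growth arrest is given as TGI.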
System: P388/ADR leukemia
Assay: NCI tumour cell line growth inhibition, 48 h

## O=c1cnn(C2OC(CO)C(O)C2O)c(=S)[nH]1 (stereo unspecified)
  TGI: 6.27 µM

From PubChem BioAssay (NCI)
